Marks after values point to notes of the source that are not given here.
How the values were obtained:
SCC-1 cells [1] = assay: Cell proliferation assays of SCC-1 cells (MTS or cell counting), Example 8; assay type: cell-based, human; conditions: for decrease from control levels in absorbency readings: opioids 10^−6 M daily; for reduction of cell number from control levels: SCC-1, MTS, carboplatin 10^−7 M
Description: The UM-SCC-1 cell line (SCC-1) was derived from a well-differentiated recurrent squamous cell carcinoma in the floor of the mouth of a person (25). This cell line was obtained from The University of Michigan, Cancer Research Laboratory (Thomas E. Carey, Ph.D., Director). CAL-27 human squamous cell carcinoma cell line, derived from a poorly differentiated carcinoma of the tongue in a person ([…]), was obtained from the American Type Culture Collection (Manassas, Va.). Both cell lines were grown in Dulbecco's MEM (modified) media supplemented with 10% fetal calf serum, 1.2% sodium bicarbonate, and antibiotics (5,000 Units/ml penicillin, 5 mg/ml streptomycin, 10 mg/ml neomycin). The cell cultures were maintained in a humidified atmosphere of 7% CO2/93% air at 37° C.
Cells were seeded at equivalent amounts into either 6-well or 96-well plates (Falcon) and counted 24 hr later to determine plating efficiency.
The dosage of carboplatin selected was based on previous reports (27, 28), as well as preliminary studies in our laboratory.
Cell number was recorded either by using the MTS proliferation bioassay (Cell Titer 96 One Solution, Promega, Madison, Wis.) and measuring absorbency after 4 hr on a Biorad (Model 3550) plate reader at 490 nm with a 750 nm background absorbance screening, or by directly counting cells. The MTS assay utilized 10 wells/treatment. For manual counts, cells were harvested by trypsinization with 0.25% trypsin/0.53 mM EDTA, centrif uiged, and counted with a hemacytometer. Cell viability was determined by trypan blue staining. At least two aliquots per well, and 4-10 wells/treatment, were counted at each time for manual counting.
For some experiments, the rate of growth over a 96-hr period of time was calculated using linear regression analyses. The slopes of the lines (number of cells/hr) were compared by analysis of variance. All calculations were performed with GraphPad Prism software.

MIA PaCa-2 cells [2] = assay: Growth assays of MIA PaCa-2 cells (MTS assay or cell counting), Example 7; assay type: cell-based, human; conditions: for inhibition of cell number relative to controls: opioids 10^−6 M daily; for decrease in cell number relative to controls: OGF 10^−6 M and/or gemcitabine 10^−8 M
Description: (§1) MIA PaCa-2 and PANC-1 human pancreatic adenocarcinoma cell lines were purchased from the American Type Culture Collection (Manasass, Va.). MIA PaCa-2 cells were derived from an undifferentiated epithelial carcinoma occurring in the body and tail of the pancreas in a person. The PANC-1 cells were derived from an undifferentiated carcinoma from the head of the pancreas in a person. MIA PaCa-2 and PANC-1 cells were grown in Dulbecco's MEM (modified) media; media was supplemented with 10% fetal calf serum, 1.2% sodium bicarbonate, and antibiotics (5,000 Units/ml penicillin, 5 mg/ml streptomycin, 10 mg/ml neomycin), and the cells were maintained in a humidified atmosphere of 7% CO2/93% air at 37° C.
MIA PaCa-2 cells were seeded at equivalent amounts into either 75 cm^2 flasks, 6-well plates, or 96-well plates (Falcon) and counted 24 hr later to determine plating efficiency. Growth assays for PANC-1 cells were conducted in 6-well plates (Falcon). Compounds or sterile water were added beginning 24 hr after seeding (=0 hr), and both media and compounds were replaced daily. All drugs were prepared in sterile water and dilutions represent final concentrations of the compounds.
(§2) Cell number was recorded either by using a mitogenic bioassay, the MTS assay (Cell Titer 96 One Solution, Promega, Madison, Wis.), and measuring absorbency after 4 hr on a Biorad (Model 3550) plate reader at 490 nm, or by counting cells. For manual counts, cells were harvested with a solution of 0.25% trypsin/0.53 mM EDTA, centrif uiged, and counted with a hemacytometer. Cell viability was determined by trypan blue staining. At least two aliquots per flask or 4-10 wells/treatment were counted at each time.

SCC-1 cells [3] = assay: Growth curves of SCC-1 cells, cell proliferation (MTT) assay, absorbency
Description: Cells were counted using a standard MTT assay. In general, each data point represents the average absorbency taken from 10 wells/treatment; error bars represent the S.E.M.

MiaPaCa-2 cells [4] = assay: Gemcitabine growth curve, actual cell counts; assay type: cell-based, human; conditions: MiaPaCa-2 cell counts
MiaPaCa-2 cells [5] = assay: OGF/gemcitabine treatment in athymic nude mouse model (Example 5); assay type: in vivo, athymic nude mice; conditions: day 16 after tumor cell inoculation
Description: To examine the effectiveness of the combined OGF/gemcitabine treatments in vivo, an athymic nude mouse model was used.

MIA PaCa-2 cells [6] = assay: MIA PaCa-2 xenograft in nude mice, tumor appearance, growth and termination day measurements (Example 7); assay type: in vivo, BALB/c-nu/nu nude mice
Description: Male 4 week old BALB/c-nu/nu nude mice purchased from Harlan Laboratories (Indianapolis, Ind.) were housed in pathogen-free isolators in the Department of Comparative Medicine at the Penn State University College of Medicine. All procedures were approved by the IACUC committee of the Penn State University College of Medicine and conformed to the guidelines established by NIH. Mice were allowed 48 hr to acclimate prior to beginning experimentation.
MIA PaCa-2 cells (10^6 cells/mouse) were inoculated into nude mice by subcutaneous injection into the right scapular region; mice were not anesthetized for this procedure.
All drugs were dissolved in saline and prepared weekly. Injections were given within 1 hr of tumor cell inoculation.
Mice were weighed weekly throughout the experiment, and observed daily for the presence of tumors. The latency for a visible tumor to appear, and the time until tumors were measurable (i.e., 62.5 mm^3) were recorded. Tumors were measured using calipers every day after tumor appearance. Tumor volume was calculated using the formula w^2×1×π/6, where the length is the longest dimension, and width is the dimension perpendicular to length.
According to IACUC guidelines, mice were terminated when tumors became ulcerated, or tumors grew to 2 cm in diameter. Forty-five days following tumor cell inoculation, all mice were euthanized by an overdose of sodium pentobarbital (100 mg/kg) and killed by cervical dislocation; mice (with tumors) were weighed. Tumors and spleens were removed and weighed, and the lymph nodes, liver, and spleen examined for metastases.

MiaPaCa-2 cells [7] = assay: Gemcitabine and OGF cell cycle phase analysis by flow cytometry; assay type: cell-based, human
Description: To investigate the exact cell cycle phase where gemcitabine and/or OGF exerted their effects, flow cytometry was performed.

PANC-1 cells = assay: Growth assay of PANC-1 cells in 6-well plates; assay type: cell-based, human; conditions: 72 hr, OGF 10^−6 M and/or gemcitabine 10^−8 M
Description: as §1
MIA PaCa-2 cells were seeded at equivalent amounts into either 75 cm^2 flasks, 6-well plates, or 96-well plates (Falcon) and counted 24 hr later to determine plating efficiency. […]
as §2

CC(C)C[C@@H](NC(=O)[C@H](Cc1ccccc1)NC(=O)CNC(=O)[C@@H](C)NC(=O)[C@@H](N)Cc1ccc(O)cc1)C(=O)O [DADLE, [D-Ala-D-Leu-enkephalin]]
decrease from control levels in absorbency readings (SCC-1 cells [1]; SCC-1): none of the drugs utilized had any inhibitory or stimulatory effect on growth
inhibition of cell number relative to controls (MIA PaCa-2 cells [2]; MIA PaCa-2, 96 hr): none of the other drugs utilized had any inhibitory or stimulatory effect on growth

C[C@@H](NC(=O)[C@@H](N)Cc1ccc(O)cc1)C(=O)NCC(=O)N(C)[C@@H](Cc1ccccc1)C(=O)NCCO [DAMGO, [D-Ala^2, MePhe^4, Glyol^5]-enkephalin]
decrease from control levels in absorbency readings (SCC-1 cells [1]; SCC-1): none of the drugs utilized had any inhibitory or stimulatory effect on growth
inhibition of cell number relative to controls (MIA PaCa-2 cells [2]; MIA PaCa-2, 96 hr): none of the other drugs utilized had any inhibitory or stimulatory effect on growth

N.N.O=C([O-])C1(C(=O)[O-])CCC1.[Pt+2] [carboplatin]
decrease in cell number relative to controls (SCC-1 cells [3]; 48 h, carboplatin 10^−6 M and/or OGF 10^−6 M): 5.3%
decrease in cell number relative to controls (SCC-1 cells [3]; 72 h, carboplatin 10^−6 M and/or OGF 10^−6 M): 21.8%
decrease in cell number relative to controls (SCC-1 cells [3]; 72 h, carboplatin 10^−7 M alone or with OGF 10^−6 M): 18.7%
decrease in cell number relative to controls (SCC-1 cells [3]; 96 h, carboplatin 10^−6 M and/or OGF 10^−6 M): 24.9%
decrease in cell number relative to controls (SCC-1 cells [3]; 96 h, carboplatin 10^−7 M alone or with OGF 10^−6 M): 21%
reduction of cell number from control levels (SCC-1 cells [1]; 72 hr): 19%
reduction of cell number from control levels (SCC-1 cells [1]; 96 hr): 21%

Nc1ccn([C@@H]2O[C@H](CO)[C@@H](O)C2(F)F)c(=O)n1 [gemcitabine]
decrease in cell number relative to controls (MiaPaCa-2 cells [4]; 24 h, gemcitabine 10^−7 M or OGF 10^−6 M alone): 30.1%
decrease in cell number relative to controls (MiaPaCa-2 cells [4]; 48 h, gemcitabine 10^−7 M or OGF 10^−6 M alone): 46.4%
decrease in cell number relative to controls (MiaPaCa-2 cells [4]; 48 h, gemcitabine 10^−8 M alone or with OGF 10^−6 M): 21.7%
decrease in cell number relative to controls (MiaPaCa-2 cells [4]; 72 h, gemcitabine 10^−7 M or OGF 10^−6 M alone): 47.7%
decrease in cell number relative to controls (MiaPaCa-2 cells [4]; 72 h, gemcitabine 10^−8 M alone or with OGF 10^−6 M): 21.2%
decrease in cell number relative to controls (MiaPaCa-2 cells [4]; 96 h, gemcitabine 10^−7 M or OGF 10^−6 M alone): 64.2%
decrease in cell number relative to controls (MiaPaCa-2 cells [4]; 96 h, gemcitabine 10^−8 M alone or with OGF 10^−6 M): 32.4%
inhibition at 0.01 µM (MIA PaCa-2 cells [2]; Homo sapiens, MIA PaCa-2, 96 h, read-out: inhibition of cell growth relative to control levels): 13 to 36%
decrease in cell number relative to controls (MIA PaCa-2 cells [2]; MIA PaCa-2, 48 hr): 22%
decrease in cell number relative to controls (MIA PaCa-2 cells [2]; MIA PaCa-2, 72 hr): 21%
difference in cell number between reversal group and group continuing drug exposure (MIA PaCa-2 cells [2]; MIA PaCa-2, 96 hr (48 hr after reversal)): did not differ
decrease in cell number relative to controls (MIA PaCa-2 cells [2]; MIA PaCa-2, 96 hr): 32%
mice with tumors (MiaPaCa-2 cells [5]): 75%
day from which tumor volume differed from controls (MIA PaCa-2 cells [6]; at least p<0.05): 14 days
mice with measurable tumors (MIA PaCa-2 cells [6]; day 10): 75%
tumor volumes decreased from control values (MIA PaCa-2 cells [6]; day 45): 56%
weight of the spleen decreased from control values (MIA PaCa-2 cells [6]; day 45): approximately 40%
Body Weight (MIA PaCa-2 cells [6]; day 45, means ± SEM): 27.4 ± 0.55 g
Spleen Weight (MIA PaCa-2 cells [6]; day 45, means ± SEM): 454 ± 49 mg
Tumor Volume, mm^3 (MIA PaCa-2 cells [6]; day 45, means ± SEM): 3963 ± 123*** mm^3
Tumor Weight (MIA PaCa-2 cells [6]; day 45, means ± SEM): 2.4 ± 0.1 g
Latency to measurable tumor (MIA PaCa-2 cells [6]; means ± SEM): 13.1 ± 1.0 days
Latency to visible tumor (MIA PaCa-2 cells [6]; means ± SEM): 11.1 ± 1.1 days
Tumor Incidence, day 16 (MIA PaCa-2 cells [6]; mice with tumor/N): 11/12
Tumor Incidence, day 10 (MIA PaCa-2 cells [6]; mice with tumor/N, OGF 10 mg/kg daily and/or gemcitabine 120 mg/kg every 3 days i.p.): 9/12
weights of tumors decreased from control levels (MIA PaCa-2 cells [6]; termination day (day 45)): 56%
cells in the G1 phase of the cell cycle (MiaPaCa-2 cells [7]; 48 hours of treatment): 73.50%
cells in the G1 phase of the cell cycle (MiaPaCa-2 cells [7]; 120 hours of treatment): 60.75%
fewer cells than in control cultures (PANC-1 cells): 31%

CN1CC[C@]23c4c5ccc(O)c4O[C@H]2[C@@H](O)C=C[C@H]3[C@H]1C5 [morphine]
decrease from control levels in absorbency readings (SCC-1 cells [1]; SCC-1): none of the drugs utilized had any inhibitory or stimulatory effect on growth
inhibition of cell number relative to controls (MIA PaCa-2 cells [2]; MIA PaCa-2, 96 hr): none of the other drugs utilized had any inhibitory or stimulatory effect on growth

C=CCN1CC[C@]23c4c5ccc(O)c4O[C@H]2C(=O)CC[C@@]3(O)[C@H]1C5 [naloxone]
effect of naloxone on growth and growth inhibition (SCC-1 cells [1]; SCC-1, naloxone 10^−6 M): had no effect on growth
effect of naloxone on growth and growth inhibition (MIA PaCa-2 cells [2]; MIA PaCa-2, 96 hr, naloxone 10^−6 M): had no effect on the growth of MIA PaCa-2 cells

[D-Pen^2,5]-enkephalin [DPDPE]
decrease from control levels in absorbency readings (SCC-1 cells [1]; SCC-1): none of the drugs utilized had any inhibitory or stimulatory effect on growth
inhibition of cell number relative to controls (MIA PaCa-2 cells [2]; MIA PaCa-2, 96 hr): none of the other drugs utilized had any inhibitory or stimulatory effect on growth

dynorphin 1-13 (YGGFLRRIRPKLK; Dynorphin A(1-13); UniProt P01213 207-219, looked up, fragment)
decrease from control levels in absorbency readings (SCC-1 cells [1]; SCC-1): none of the drugs utilized had any inhibitory or stimulatory effect on growth

dynorphin A1-8 (YGGFLRRI; Dynorphin A(1-8); UniProt P01213 207-214, looked up, fragment)
inhibition of cell number relative to controls (MIA PaCa-2 cells [2]; MIA PaCa-2, 96 hr): none of the other drugs utilized had any inhibitory or stimulatory effect on growth

endomorphin-1
decrease from control levels in absorbency readings (SCC-1 cells [1]; SCC-1): none of the drugs utilized had any inhibitory or stimulatory effect on growth
inhibition of cell number relative to controls (MIA PaCa-2 cells [2]; MIA PaCa-2, 96 hr): none of the other drugs utilized had any inhibitory or stimulatory effect on growth

endomorphin-2
decrease from control levels in absorbency readings (SCC-1 cells [1]; SCC-1): none of the drugs utilized had any inhibitory or stimulatory effect on growth
inhibition of cell number relative to controls (MIA PaCa-2 cells [2]; MIA PaCa-2, 96 hr): none of the other drugs utilized had any inhibitory or stimulatory effect on growth

β-endorphin (YGGFMTSEKSQTPLVTLFKNAIIKNAYKKGE; Beta-endorphin; UniProt P01189 237-267, looked up)
decrease from control levels in absorbency readings (SCC-1 cells [1]; SCC-1): none of the drugs utilized had any inhibitory or stimulatory effect on growth
inhibition of cell number relative to controls (MIA PaCa-2 cells [2]; MIA PaCa-2, 96 hr): none of the other drugs utilized had any inhibitory or stimulatory effect on growth

— patent US8003630B2, “Combinatorial therapies for the treatment of neoplasias using the opioid growth factor receptor” (The Penn State Research Foundation, priority 2004, dated 2011)
